Data as given in EP0114577A1, “New pharmaceutical composition” (MAGIS FARMACEUTICI S.p.A., priority 1983, dated 1984).

Experiment: Serum levels of radioactivity after administration of 14C-CDPC (liposomal suspension vs aqueous solution) to rats
Conditions: rat, in vivo, 200 mg/kg
Excerpt: Surprising results which are obtained orally administering carried-by-liposomes CDPC instead of utilizing hitherto known pharmaceutical compositions for oral administration are confirmed by data obtained by carrying out tests hereinbelow described. During the tests as pharmaceutical composition containing carried-by-liposomes CDPC, CDPC carried by means of a liposome having purified phosphatidylcholine from soybean as hydrophobic phase was utilized; said pharmaceutical composition will be called hereinafter Lip. CDPC for the sake of brevity. Moreover, during the hereinbelow describ ed tests, a marked CDPC was utilized having an atom of ^14C introduced into the methyl group of the cholinic side of the molecule. The radioactivity resulted to be about 0.1 µ Curie/mg pure CDPC.
The suspension of Lip. CDPC containing ^14C-CDPC, which was obtained as described in Example No. 1, and a ' reference aqueous solution of ^14C-CDPC were administered by gavage to rats of average weight of 200 g at the doses of 200 mg/Kg (referred to pure CDPC).
Blood abstractions were carried out at various intervals of time and, 24 hours after the start of test, the animals were sacrificed. Amounts of absorbed active ingredient were calculated from radioactivity measures on serum; said amounts, as reported in following Tables (1 - 2), were higher on the average in tests carried out employing Lip. CDPC in comparison with controls with pure CDPC in aqueous solution. It is apparent from the analysis of Tables that, in the described experimental conditions, there is a valuable absorption of CDPC after oral administration. The amount of said absorption and pertinent hematic concentrations are remarkably higher when Lip. CDPC, which is object of the present invention, is used: for example at the 6th hour the serum concentration of CDPC for Lip. CDPC was much higher than concentration found for CDPC administered in aqueous solution.

C[N+](C)(C)CCOP(=O)(O)OP(=O)([O-])OC[C@H]1O[C@@H](n2ccc(N)nc2=O)[C@H](O)[C@@H]1O [CDPC, cytidine diphosphate choline ester]
Serum concentration (0 min): 0 CPM x 10^-3
Serum concentration (60 min): 0.3 CPM x 10^-3
Serum concentration (120 min): 1 CPM x 10^-3
Serum concentration (300 min): 2.6 CPM x 10^-3
Serum concentration (600 min): 4 CPM x 10^-3
Serum concentration (900 min): 4 CPM x 10^-3
